The target of data set [1] is T1, CCR7 (Homo sapiens, UniProt P32248).
T1 construct: expressed in transfected cells
T1 sequence (P32248 25-378): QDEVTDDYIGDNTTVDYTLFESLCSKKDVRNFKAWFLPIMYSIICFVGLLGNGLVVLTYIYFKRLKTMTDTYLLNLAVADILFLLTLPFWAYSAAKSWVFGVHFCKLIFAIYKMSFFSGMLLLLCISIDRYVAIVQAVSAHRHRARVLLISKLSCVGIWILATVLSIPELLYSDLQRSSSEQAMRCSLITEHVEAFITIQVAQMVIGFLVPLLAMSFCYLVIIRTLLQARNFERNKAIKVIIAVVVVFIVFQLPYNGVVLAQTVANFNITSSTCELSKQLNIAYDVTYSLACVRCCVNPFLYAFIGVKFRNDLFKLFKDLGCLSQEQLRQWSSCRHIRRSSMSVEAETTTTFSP
The data set can be described thus: TANGO β-arrestin antagonist assay, CCR7. Format: cell-based. The method, then:
(§1) Selected compounds were initially sent for both antagonist and agonist TANGO β-arrestin assays. […] Replacement only on the amide group with CN led to strong activity decrease in β-arrestin assay: only 31% activity at about 30 μM and similar one at 100 μM (Table 1). Five more derivatives with replaced amide group were also tested in parallel by Ca^2+ mobilization assay and they all were not active up to the tested concertation of 100 μM.
In current CCR7-β-arrestin antagonistic assay a Hill coefficient of 15.1 was obtained, without any transformation of the data. Instead for CCR1, CCR2, CCR3 and CCR5 coefficients much closer to one were calculated, 2.3, 3.1, 2.6 and 1.9, respectively. Moreover, the increase of the activity for CCR3 and CCR5 were over 50-folds for concentrations where the activity raised. […] Further, the CCR7-β-arrestin antagonistic assay was repeated and retrieved almost identical results.

Data set [2] deals with T1, CCR7. Kind of data set: Ca^2+ mobilization assay, CCR7. Format: cell-based. On the procedure:
as §1
(§2) To examine the colloid aggregation possibility a β-lactamase enzymatic activity counterscreen assay was performed, which is the commonly adopted tool for detection of such properties of the compounds.

A further data set addresses CCR2 (Homo sapiens, UniProt P41597). The data set can be described thus: β-arrestin selectivity assay, CCR2. It is filed as cell-based.
Another data set concerns the target CCR5 (Homo sapiens, UniProt P51681). Kind of data set: β-arrestin selectivity assay, CCR5. Format: cell-based.
Data set [3] concerns the target T1, CCR7. Kind of data set: ERK assay, CCR7. Format: cell-based. On the procedure: The Kb values are also retrieved. […] Finally, to make it more clear the second messenger output for Hit1 and confirm the nature of β-arrestin bias GTPγS and ERK assays were also performed. […] Considering that the ERK is directly related to β-arrestin path and binds directly to the arrestin it was concluded that this compound is β-arrestin biased (Table 1 and FIGS. 3A and 3B). Finally, several other potential hits were identified but the activities were in a range of 25-35% at 100 μM concentration and they were discarded in this disclosure.
Current diversity data provide also several additional experimental evidences which are against colloid aggregation activity dependence: • Almost identical steep dose-response curves have been observed for the natural CCL19 and CCL21 agonists. Thus, it seems that this is not unique to Hit 1 case. • Hill coefficient of 1.5 in the ERK experiments and no steep slope (FIG. 3A). Moreover, the ERK dose-response curve looks like a typical single antagonist ligand. • At the same conditions as in the ERK assay the compound was in particular not active in the GTPγS assay up to 100 μM (FIG. 3B). […]

Data set [4] can be described thus: Maximal tolerated dose (MTD) study in BALB/c mice. It is filed as in vivo. The following applies: daily (QD) oral doses of 30 mg/kg and 150 mg/kg. On the procedure:
Design of the in vivo study: A total of 44 female BALB/c mice (12 mice for maximal tolerance dose (MTD) study; 32 mice for efficacy study) were used in the 4T-1-Luc study. The animals were specific pathogen free and approximately 4-5 weeks old at the initiation of the study.
MTD studies: Initially, 10 BALB/c mice were used for the maximal tolerated dose (MTD) response study determination. The mice were randomized based on body weight and were treated with Hit 1 compound with daily (QD) oral doses of 30 mg/kg and 150 mg/kg. Body weight was measured daily.

In another data set the test system is β-lactamase. The data set can be described thus: β-lactamase enzymatic activity counterscreen (colloid aggregation). It is filed as biochemical. The note with it: 50 μM. The method, then: as §2
For orientation: A counterscreen serves to expose hits that act by an unwanted route or on another target.

For another data set, the system named is 4T-1-luc cells. It is filed as in vivo. The note with it: Day 15.
Another data set has as its system IL-8 release. The note with it: Homo sapiens, read-out: EC50, IL8 release.
A further data set concerns CCL2 release. The note with it: Homo sapiens, Keratinocyte, read-out: EC50, CCL2 release.

Read-outs that look alike come from different tables or passages of the source.

CCR2, sequence (P41597 whole entry): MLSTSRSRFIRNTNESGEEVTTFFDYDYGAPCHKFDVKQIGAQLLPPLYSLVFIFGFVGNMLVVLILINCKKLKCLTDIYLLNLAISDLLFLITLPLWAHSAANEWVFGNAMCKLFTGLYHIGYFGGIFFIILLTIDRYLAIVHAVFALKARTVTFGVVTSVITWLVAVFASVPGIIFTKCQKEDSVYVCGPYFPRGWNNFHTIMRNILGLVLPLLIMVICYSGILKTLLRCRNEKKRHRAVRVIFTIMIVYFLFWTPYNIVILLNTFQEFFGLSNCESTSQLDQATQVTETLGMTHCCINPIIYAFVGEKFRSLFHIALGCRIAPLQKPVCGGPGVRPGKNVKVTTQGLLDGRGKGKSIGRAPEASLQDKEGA
CCR5, sequence (P51681 whole entry): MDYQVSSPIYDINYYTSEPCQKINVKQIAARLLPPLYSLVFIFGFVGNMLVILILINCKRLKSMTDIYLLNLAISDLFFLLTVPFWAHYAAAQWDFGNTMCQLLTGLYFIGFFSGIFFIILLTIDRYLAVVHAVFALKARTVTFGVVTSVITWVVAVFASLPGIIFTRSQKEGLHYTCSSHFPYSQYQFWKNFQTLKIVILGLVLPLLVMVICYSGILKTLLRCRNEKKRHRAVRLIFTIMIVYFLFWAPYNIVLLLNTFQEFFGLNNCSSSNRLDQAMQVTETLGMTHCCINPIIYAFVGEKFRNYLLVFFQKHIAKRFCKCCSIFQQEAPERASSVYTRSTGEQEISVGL
Method for CCL2 release: (§3) For this purpose a model for the inhibition of CCL2 release from IL-4, IL-13, IL-22 and IFNγ-stimulated primary human keratinocytes (Eczematous inflammation) was used and also an assay for the inhibition of IL-8 release from IL-17A and TNFα (Psoriatic inflammation). […] Finally, migration assay by MB231cell line was performed.
Method for IL-8 release: as §3

With `NC(=O)c1ccccc1Oc1ncnc2sc(-c3ccccc3)cc12` [Hit 1, 2-({6-phenylthieno[2,3-d]pyrimidin-4-yl}oxy)benzamide], the inhibition at 100 µM on CCR7 [1] (100 μM concentration, read-out: β-arrestin assay (100 μM), Percent of inhibition) is 110%; at CCR7 [2] (100 μM concentration, read-out: Ca^2+ assay (100 μM), Percent of inhibition), 63%. Further, the Hill coefficient came out at 15.1 at CCR7 [1] (CCR7-β-arrestin antagonistic assay, without any transformation of the data); 3.1 on CCR2; 1.9 at CCR5; 1.5 on CCR7 [3] (ERK experiments). Besides, the IC50 is 9.1 µM on CCR7 [1] (TANGO β-arrestin antagonist assay, CCR7, read-out: IC50, antagonistic activity); 9.2 µM at CCR7 [1] (same data transformed to log units, normalized, GraphPad 6, read-out: IC50); 92 µM against CCR7 [2] (Ca^2+ mobilization assay, CCR7); 25 to 30 µM on CCR7 [2] (similar Ca^2+ mobilization assay in an independent lab (data not shown)); 2.6 µM at CCR2; 1.9 µM against CCR5. On CCR7 [3] (ERK assay), this compound registered a half-inhibitory concentration (IC50) of 18.1 µM. Also, the Hill slope at CCR7 [1] (same data transformed to log units, normalized, GraphPad 6) is on record as 11.2; on CCR7 [2] (Ca^2+ mobilization assay, CCR7), 2.6. The compound also registered a Kb at CCR7 [2] (CCR7) of 2.8 µM. For the same compound, at CCR7 [2] (Ca^2+ mobilization assay, CCR7 expressed cells, preliminary data), the “activity change with 0.01% Triton X-100” value is reported as “no activity change”. In addition, the “behavior and side effects” value in data set [4] is recorded as “did not show abnormal behavior”. The body weight loss result in [4] is “A significant (>20%) body lost was not observed”. Moreover, the “activity on β-lactamase” value with β-lactamase is given as −18%. Moreover, the “Animal bioluminescence imaging intensity, Mean” value is 1.69E+08 10^8 p/s in the data set with 4T-1-luc cells (G2 5 mg/kg p.o. QD) and 1.09E+08 10^8 p/s in the data set on 4T-1-luc cells (G3 30 mg/kg p.o. QD). Also, the half-maximal effective concentration (EC50) was 0.733 µM in the data set on IL-8 release and 0.411 µM with CCL2 release.

The inhibition is the drop in the measured response relative to a control, in per cent. The Hill coefficient is the slope factor of the fitted curve. For orientation: IC50 means the concentration at which inhibition is half-maximal. For orientation: Hill slope means the slope factor of the fitted curve. The term EC50 denotes the midpoint of the concentration-response curve.

The record behind these values is US20250206754A1, “PAN-CHEMOKINE ANTAGONISTS FOR USE IN TREATING CANCER AND IMMUNE DISORDERS” ("Micar Innovation" LTD., priority 2022, published 2025).
